In patent US20240043470A1, “MACROCYCLIC COMPOUNDS AS PROTEASOME INHIBITORS” (CORNELL UNIVERSITY, priority 2017, published 2024):

Key:
β5i of hu i-20S = β5i of hu i-20S (Homo sapiens (Human), UniProt P20618+P28062); assay: IC50 determination against β5i of human immunoproteasome (Ac-ANW-AMC hydrolysis); format: biochemical; conditions: for IC50: β5i, 0.4 nM i-20S, 15 μM Ac-ANW-AMC;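 as to all read-outs here: enzyme activity taken as the initial reaction velocity per well, with SDS added to activate the proteasome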
β5c of hu c-20S = β5c of hu c-20S (Homo sapiens (Human), UniProt P20618+P28074); assay: IC50 determination against β5c of human constitutive proteasome (suc-LLVY-AMC hydrolysis); format: biochemical; conditions: 0.2 nM c-20S, 25 μM suc-LLVY-AMC;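 also: IC50 obtained by fitting initial reaction velocities to a dose-dependent inhibition model, with SDS present as proteasome activator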

SMILES	IC50 (β5i of hu i-20S)	IC50 (β5c of hu c-20S)	% @ […], hu i-20S (β5i of hu i-20S; compound at […])
O=C1CCc2cccc(c2)Oc2ccc(cc2)C[C@@H](C(=O)NCc2cccc3ccccc23)NC(=O)[C@H](CC(=O)N2CCCC2)N1 (single isomer, unassigned) [Compound 2-03-A, N-(Naphthalen-1-ylmethyl)-7,10-dioxo-8-(2-oxo-2-(pyrrolidin-1-yl)ethyl)-2-oxa-6,9-diaza-1(1,3),3(1,4)-dibenzenacyclododecaphane-5-carboxamide]	10.1 µM	18.5 µM	
C[C@H]1Cc2cccc(c2)OCCCC[C@@H](C(=O)NC2CCCC2)NC(=O)[C@H](CCN2CCOCC2)NC1=O (single isomer, unassigned) [Compound 3-37]	> 100 µM	56.7 µM	
C[C@@H]1Cc2cccc(c2)OCCCC[C@@H](C(=O)NC2CCCC2)NC(=O)[C@H](CCN2CCOCC2)NC1=O (single isomer, unassigned) [Compound 3-38]	> 100 µM	21.5 µM	
O=C1CCc2cccc(c2)OCCCC[C@@H](C(=O)NC2CCCC2)NC(=O)[C@H](CC(=O)N2CCCC2C2CC2)N1 (single isomer, unassigned) [Compound 3-45-A]	> 100 µM	12.3 µM	
O=C1CCc2cccc(c2)OCCCC[C@@H](C(=O)NC2CCCC2)NC(=O)[C@H](CC(=O)N2CCCC2C2CC2)N1 (single isomer, unassigned) [Compound 3-45-B]	> 100 µM	3.6 µM	
O=C1CCc2cccc(c2)OCCCC[C@@H](C(=O)NCc2ccccc2F)NC(=O)[C@H](CC(=O)N2CCCC2C2CC2)N1 (single isomer, unassigned) [Compound 3-46-A]	0.068 µM	0.0723 µM	
O=C1CCc2cccc(c2)OCCCC[C@@H](C(=O)NCc2ccccc2F)NC(=O)[C@H](CC(=O)N2CCCC2C2CC2)N1 (single isomer, unassigned) [Compound 3-46-B]	0.312 µM	1.35 µM	
O=C1N[C@@H](CC(=O)N2CCCC2)C(=O)N[C@H](C(=O)NCc2cccc3ccccc23)CCCCCCCCCC1Cc1ccccc1 (stereo in doubt) [Compound 4-04, (2S,5S,15S)-15-Benzyl-N-(naphthalen-1-ylmethyl)-3,16-dioxo-2-(2-oxo-2-(pyrrolidin-1-yl)ethyl)-1,4-diazacyclohexadecane-5-carboxamide]	61.3 µM		
CCN(CC)[C@H]1Cc2cccc(c2)Oc2cccc(c2)C[C@@H](C(=O)NCc2ccccc2)NC(=O)[C@H](CCc2ccccc2)NC1=O [Compound 1-16]	100 µM	22.9 µM	
CS(=O)(=O)CCNC(=O)[C@@H]1Cc2cccc(c2)Oc2cccc(c2)C[C@H](NC(=O)CO)C(=O)N[C@@H](CCc2ccccc2)C(=O)N1 [Compound 1-46]		9.5 µM	
CCC(=O)N[C@H]1Cc2cccc(c2)Oc2cccc(c2)C[C@@H](C(=O)NCc2ccccn2)NC(=O)[C@H](CCc2ccccc2)NC1=O [Compound 1-48]		10.2 µM	
O=C(N[C@H]1Cc2cccc(c2)Oc2cccc(c2)C[C@@H](C(=O)NCC2CCOCC2)NC(=O)[C@H](CCc2ccccc2)NC1=O)c1cccnn1 [Compound 1-49]		11.9 µM	
CC(C)(C)OC(=O)N[C@H]1Cc2cccc(c2)Oc2cccc(c2)C[C@@H](C(=O)OCc2ccccc2)NC(=O)[C@H](CCc2ccccc2)NC1=O [Compound 1-50, Benzyl-(S,8S,11S)-11-((tert-butoxycarbonyl)amino)-7,10-dioxo-8-phenethyl-2-oxa-6,9-diaza-1,3(1,3)-dibenzenacyclododecaphane-5-carboxylate]	> 100 µM	> 100 µM	
CN1CCN(C(=O)[C@@H]2Cc3cccc(c3)Oc3cccc(c3)C[C@H](NC(=O)c3ccccn3)C(=O)N[C@@H](CCc3ccccc3)C(=O)N2)CC1 [Compound 1-52]	33.9 µM	30.7 µM	
O=C(N[C@H]1Cc2cccc(c2)Oc2cccc(c2)C[C@@H](C(=O)NCC(F)(F)F)NC(=O)[C@H](CCc2ccccc2)NC1=O)C1CC1 [Compound 1-54, (5S,8S,11S)-11-(Cyclopropanecarboxamido)-7,10-dioxo-8-phenethyl-N-(2,2,2-trifluoroethyl)-2-oxa-6,9-diaza-1,3(1,3)-dibenzenacyclododecaphane-5-carboxamide]	> 100 µM	> 100 µM	
O=C(CC(F)(F)F)N[C@H]1Cc2cccc(c2)Oc2cccc(c2)C[C@@H](C(=O)NCC(F)(F)F)NC(=O)[C@H](CCc2ccccc2)NC1=O [Compound 1-55, (5S,8S,11S)-7,10-Dioxo-8-phenethyl-N-(2,2,2-trifluoroethyl)-11-(3,3,3-trifluoropropanamido)-2-oxa-6,9-diaza-1,3(1,3)-dibenzenacyclododecaphane-5-carboxamide]	> 100 µM	> 100 µM	
CN(C)[C@H]1Cc2cccc(c2)Oc2cccc(c2)C[C@@H](C(=O)NCC(F)(F)F)NC(=O)[C@H](CCc2ccccc2)NC1=O [Compound 1-57, (5S,8S,11S)-11-(Dimethylamino)-7,10-dioxo-8-phenethyl-N-(2,2,2-trifluoroethyl)-2-oxa-6,9-diaza-1,3(1,3)-dibenzenacyclododecaphane-5-carboxamide]	18.7 µM	1.1 µM	
O=C(NC1CCCC1)[C@@H]1Cc2cccc(c2)Oc2cccc(c2)C[C@H](N2CCCS2(=O)=O)C(=O)N[C@@H](CCN2CCOCC2)C(=O)N1 [Compound 1-88, (5S,8S,11S)—N-Cyclopentyl-11-(1,1-dioxidoisothiazolidin-2-yl)-8-(2-morpholinoethyl)-7,10-dioxo-2-oxa-6,9-diaza-1,3(1,3)-dibenzenacyclododecaphane-5-carboxamide]			15% @ 33.3 μM
O=C1CCc2cccc(c2)Oc2cccc(c2)C[C@@H](C(=O)NC2CCCC2)NC(=O)[C@H](CCN2CCOCC2)N1 [Compound 1-89, (5S,8S)—N-Cyclopentyl-8-(2-morpholinoethyl)-7,10-dioxo-2-oxa-6,9-diaza-1,3(1,3)-dibenzenacyclododecaphane-5-carboxamide]	> 100 µM		
O=C1CCc2cccc(c2)OCCCC[C@@H](C(=O)NC2CCCC2)NC(=O)[C@H](CCN2CCOCC2)N1 [Compound 3-25, (6S,9S)—N-Cyclopentyl-9-(2-morpholinoethyl)-8,11-dioxo-2-oxa-7,10-diaza-1(1,3)-benzenacyclotridecaphane-6-carboxamide]		24.1 µM	
CC1(CNC(=O)[C@@H]2CCCCOc3cccc(c3)CCC(=O)N[C@@H](CCN3CCOCC3)C(=O)N2)CC1 [Compound 3-27]		34.6 µM	

Continued, in another order:

IC50 (β5i of hu i-20S)	IC50 (β5c of hu c-20S)	SMILES	% @ […], hu i-20S (β5i of hu i-20S; compound at […])
7.22 µM	> 100 µM	Cn1cc(CNC(=O)[C@@H]2Cc3cccc(c3)Oc3cccc(c3)C[C@H](NS(C)(=O)=O)C(=O)N[C@@H](CCc3ccccc3)C(=O)N2)cn1 [Compound 1-04, (5S,8S,11S)—N-((1-Methyl-1H-pyrazol-4-yl)methyl)-11-(methylsulfonamido)-7,10-dioxo-8-phenethyl-2-oxa-6,9-diaza-1,3(1,3)-dibenzenacyclododecaphane-5-carboxamide]	
14.8 µM	> 100 µM	Cn1cc(CNC(=O)[C@@H]2Cc3cccc(c3)Oc3cccc(c3)C[C@H](NC(=O)CO)C(=O)N[C@@H](CCc3ccccc3)C(=O)N2)cn1 [Compound 1-05]	
6.6 µM	42.5 µM	O=C(NCc1ccccc1)[C@@H]1Cc2cccc(c2)Oc2cccc(c2)C[C@H](N2CCCC2)C(=O)N[C@@H](CCc2ccccc2)C(=O)N1 [Compound 1-17]	
> 100 µM	3.6 µM	CC(C)(C)NC(=O)[C@@H]1Cc2cccc(c2)Oc2cccc(c2)C[C@H](NS(C)(=O)=O)C(=O)N[C@@H](CCc2ccccc2)C(=O)N1 [Compound 1-37]	
	7.52 µM	O=C(N[C@H]1Cc2cccc(c2)Oc2cccc(c2)C[C@@H](C(=O)N2CCCC2)NC(=O)[C@H](CCc2ccccc2)NC1=O)C1COC1 [Compound 1-44]	
	7.7 µM	COCCC(=O)N[C@H]1Cc2cccc(c2)Oc2cccc(c2)C[C@@H](C(=O)NCCC(F)(F)F)NC(=O)[C@H](CCc2ccccc2)NC1=O [Compound 1-45]	
	9.7 µM	COCC(=O)N[C@H]1Cc2cccc(c2)Oc2cccc(c2)C[C@@H](C(=O)NCC2CCCO2)NC(=O)[C@H](CCc2ccccc2)NC1=O (stereo partly drawn) [Compound 1-47]	
2.72 µM	> 100 µM	CN1C(=O)[C@@H](N2CCCC2=O)Cc2cccc(c2)Oc2cccc(c2)C[C@@H](C(=O)NCC(F)(F)F)NC(=O)[C@@H]1CCc1ccccc1 [Compound 1-64]	
61 µM		CN1C(=O)[C@H](CCN2CCOCC2)NC(=O)[C@@H](N2CCCC2=O)Cc2cccc(c2)Oc2cccc(c2)C[C@H]1C(=O)NCC(F)(F)F [Compound 1-86, (5S,8S,11S)-6-Methyl-8-(2-morpholinoethyl)-7,10-dioxo-11-(2-oxopyrrolidin-1-yl)-N-(2,2,2-trifluoroethyl)-2-oxa-6,9-diaza-1,3(1,3)-dibenzenacyclododecaphane-5-carboxamide]	
	0.47 µM	O=C1CCc2cccc(c2)Oc2cccc(c2)C[C@@H](C(=O)NCc2ccccc2F)NC(=O)[C@H](CCN2CCOCC2)N1 [Compound 1-91]	
68 µM		O=C1N[C@H](CO)CCCCOc2cccc(c2)C[C@H](N2CCCC2=O)C(=O)N[C@H]1CCc1ccccc1 [Compound 3-06, (7S,10S,13S)-7-(Hydroxymethyl)-13-(2-oxopyrrolidin-1-yl)-10-phenethyl-2-oxa-8,11-diaza-1(1,3)-benzenacyclotetradecaphane-9,12-dione]	
	17.9 µM	O=C(NCC1CC1)[C@@H]1CCCCOc2cccc(c2)C[C@H](N2CCCC2=O)C(=O)N[C@@H](CCN2CCOCC2)C(=O)N1 [Compound 3-17, (7S,10S,13S)—N-(Cyclopropylmethyl)-10-(2-morpholinoethyl)-9,12-dioxo-13-(2-oxopyrrolidin-1-yl)-2-oxa-8,11-diaza-1(1,3)-benzenacyclotetradecaphane-7-carboxamide]	
	45 µM	O=C(NCC(F)(F)F)[C@@H]1CCCCOc2cccc(c2)C[C@H](N2CCCS2(=O)=O)C(=O)N[C@@H](CCN2CCOCC2)C(=O)N1 [Compound 3-19]	
	85.3 µM	O=C(NC[C@H]1CCCO1)[C@@H]1CCCCOc2cccc(c2)C[C@H](N2CCCC2=O)C(=O)N[C@@H](CCc2ccc(F)cc2)C(=O)N1 [Compound 3-30]	
	25.8 µM	CN1C(=O)[C@H](CCc2ccccc2)NC(=O)[C@@H](N2CCCC2=O)Cc2cccc(c2)OCCCC[C@H]1C(=O)NCC(F)(F)F [Compound 3-33]	
